According to US7371364B2, “Cyclic peptide and imaging compound compositions and uses for targeted imaging and therapy” (Board of Regents, The University of Texas System, priority 2003, dated 2008):
Positions of bridges follow the written chain, without caps; N, C: chain ends. No end group written: not given here. Cy5.5 = cyanine near-infrared dye Cy5.5, conjugated via its NHS ester to the amino group

Columns and labels:
[1] = test system: intratibia PC-3 prostate tumors; experiment: In vivo NIR fluorescent imaging with HWG imaging agent; parameters: species or system mice
Experimental: Four to six week-old athymic nude mice (18-22 g, Harlan Sprague Dawley, Inc., Indianapolis, Ind.) were housed 5 per cage with sterilized pet chow (Harlan Sprague Dawley) and sterilized water. Animals were maintained in a pathogen-free mouse colony in the Department of Veterinary Medicine at the University of Texas M.D. Anderson Cancer Center. All experiments were performed in accordance with the guidelines of the Institutional Animal Care and Use Committee. Tumor cells were harvested near confluence by incubation with 0.05% trypsin-EDTA. Cells were pelleted by centrifugation at 450×g for 5 minutes and resuspended in sterile PBS. Cells (2-3×10^6/animal) were implanted subcutaneously into the chest wall or the hind legs of the mice. Human PC-3 prostate tumors were obtained by intratibia injection of PC-3 cells into male nude mice. Human U87 glioma tumors were obtained by intracranial injection. In vivo fluorescence imaging was accomplished by illuminating the animal with light from a laser diode (785 nm, 80 mW for IGC; 660 nm, 35 mW for Cy 5.5 dyes) expanded to an approximate 8 cm diameter circular area. The re-emitted fluorescent light was collected by an image intensifier (model F[…], ITT Night Vision, Roanoke, Va.) lens-coupled to a CCD camera (model CH350, Photometrics, Tucson, Ariz.). The imaging was designed so that the field of view could be varied from 3×3 cm to over 12×12 cm by varying the image distance of the 50 mm lens used to focus the image onto the photocathode of the intensifier. The lens was fitted with a holographic notch-plus filter (785 nm center wavelength for ICG and 660 nm center wavelength for Cy5.5 dyes; Kaiser Optical Systems, Inc., Ann Arbor, Mich.) and a bandpass filter (830 nm center wavelength for ICG, 710 nm center wavelength for Cy5.5 dyes) to reject back-scattered and reflected excitation photons. Image acquisition was accomplished using V++ software (Digital Optics, Auckland, New Zealand) and obtained images were stored in uncompressed tagged image file format (tiff). […]

HT1080 tumor = experiment: as above; parameters: species or system mice; conditions: subcutaneous HT1080 tumor, 27 hours after i.v. injection, 15 nmol/mouse
Experimental: (§1) Four to six week-old athymic nude mice (18-22 g, Harlan Sprague Dawley, Inc., Indianapolis, Ind.) were housed 5 per cage with sterilized pet chow (Harlan Sprague Dawley) and sterilized water. Animals were maintained in a pathogen-free mouse colony in the Department of Veterinary Medicine at the University of Texas M.D. Anderson Cancer Center. All experiments were performed in accordance with the guidelines of the Institutional Animal Care and Use Committee. Tumor cells were harvested near confluence by incubation with 0.05% trypsin-EDTA. Cells were pelleted by centrifugation at 450×g for 5 minutes and resuspended in sterile PBS. Cells (2-3×10^6/animal) were implanted subcutaneously into the chest wall or the hind legs of the mice. Human PC-3 prostate tumors were obtained by intratibia injection of PC-3 cells into male nude mice. Human U87 glioma tumors were obtained by intracranial injection.
(§2) In vivo fluorescence imaging was accomplished by illuminating the animal with light from a laser diode (785 nm, 80 mW for IGC; 660 nm, 35 mW for Cy 5.5 dyes) expanded to an approximate 8 cm diameter circular area. The re-emitted fluorescent light was collected by an image intensifier (model FS9910C, ITT Night Vision, Roanoke, Va.) lens-coupled to a CCD camera (model CH350, Photometrics, Tucson, Ariz.). The imaging was designed so that the field of view could be varied from 3×3 cm to over 12×12 cm by varying the image distance of the 50 mm lens used to focus the image onto the photocathode of the intensifier. The lens was fitted with a holographic notch-plus filter (785 nm center wavelength for ICG and 660 nm center wavelength for Cy5.5 dyes; Kaiser Optical Systems, Inc., Ann Arbor, Mich.) and a bandpass filter (830 nm center wavelength for ICG, 710 nm center wavelength for Cy5.5 dyes) to reject back-scattered and reflected excitation photons. Image acquisition was accomplished using V++ software (Digital Optics, Auckland, New Zealand) and obtained images were stored in uncompressed tagged image file format (tiff). Data processing and analysis was accomplished using Matlab software (The Math Works, Inc., Natick, Mass.).

SKBr-3 tumors = experiment: as above; parameters: species or system mice; conditions: 4 days after i.v. injection, 15 nmol per mouse
Experimental: as §1, §2

KS1767 tumors = experiment: as above; parameters: species or system mice; conditions: subcutaneous KS1767 tumors, 15 nmol per mouse
Experimental: as §1, §2

human glioma U87 tumor = experiment: as above; parameters: species or system mice
Experimental: as §1, §2

MDA-MB-468 tumors = experiment: as above; parameters: species or system mice; conditions: subcutaneous MDA-MB-468 tumors, 15 nmol per mouse
Experimental: as §1, §2

human tumor cells = experiment: In vitro tumor cell binding study (fluorescence microscopy); type: cell-based
Experimental: All human tumor cell-lines were obtained from American Type Culture Collection (Rockville, Md.) and were maintained at 37° C. in a humidified atmosphere containing 5% CO2 in Dulbecco's Modified Eagle's Medium/Nutrient Mixture F-12 Ham (DMEM/F12) and 10% FBS (Gibco, Grand Island, N.Y.).
Cells were seeded on cover slips in 24-well plates (Becton Dickinson Labware, Franklin Lakes, N.J.) and incubated in DMEM/F12 culture medium (0.5 ml/well) overnight. Cy5.5 and Cy5.5-HWG polypeptide imaging agents were added into each well at the indicated concentrations. For the blocking study, doxycycline was added to the culture medium followed by the addition of Cy5.5-HWG polypeptide imaging agent 1 hour later. After an incubation period of 5-60 minutes at 37° C., cells were washed twice with PBS and incubated in a solution of Sytox Green in 95% ethyl alcohol (1 μM, Molecular Probe, Eugene, Oreg.) for 15 minutes to fix and stain cell nuclei. For staining of MMP expression, cells that were pretreated with Cy5.5-HWG polypeptide and stained with Sytox Green were incubated with anti-MMP antibody (Sigma) (1 mg/ml; 1:200 dilution) for 1 hour at room temperature. The cells were then washed and incubated with Texas Red conjugated go at anti-rabbit IgG (Molecular Probe, 4 μg/ml) at room temperature for 1 hour. Cells were washed again with PBS and the cover slips were mounted for microscopic examination using a DMR microscope (Leica Microsystems, Inc., Brannockburn, Ill.). The microscope was equipped with a 75W Xenon lamp, 775 nm/845 nm, 560 nm/645 nm, and 480 nm/535 nm (Excitation/emission) filters (Chroma Technology Corp., Brattleboro, Vt.), a Hamamatsu B/W Chilled CCD camera (Hamamatsu Photonics K.K., Hamamatsu City, Japan), and Image-Pro Plus 4.5.1 software (Media Cybernetics, Silver Spring, Md.). In the multiple staining images, Cy5.5, MMPs, and Sytox Green were pseudocolored red, green, and blue, respectively.

[2] = target: T1, αvβ3 integrin (on KS1767 cells) (UniProt P06756 31-1048; P05106 27-788); experiment: control in the KS1767 cell adhesion assay on vitronectin-coated wells (FIG. 31)
T1 construct: whole, on cells; also called integrin αvβ3
Experimental: A Cell Adhesion Assay was additionally performed. KS1767 cells were seeded in DMEM/F12 culture medium supplemented with 10% fetal bovine serum for 24 hr. Cells (1×10^5) with different concentrations of c(KRGDf; SEQ ID NO. 3) or Cy5.5-c(KRGDf; SEQ ID NO. 3) were added to vitronectin-coated microliter wells under serum-free conditions and incubated at 37° C. for 1 hr. After washing steps, the bound cells were stained with 5% crystal violet, followed by addition of 0.1M HCl to each well. The concentrations of crystal violet were determined by UV/V is absorption at 627 nm. $IC50$ values were estimated from the dose-activity curves.

[3] = target: T2, pre-activated MMP-2 (gelatinase A), Chemicon assay (UniProt P08253 110-660, limits assumed); experiment: cell-based or functional assay
T2 sequence (looked up): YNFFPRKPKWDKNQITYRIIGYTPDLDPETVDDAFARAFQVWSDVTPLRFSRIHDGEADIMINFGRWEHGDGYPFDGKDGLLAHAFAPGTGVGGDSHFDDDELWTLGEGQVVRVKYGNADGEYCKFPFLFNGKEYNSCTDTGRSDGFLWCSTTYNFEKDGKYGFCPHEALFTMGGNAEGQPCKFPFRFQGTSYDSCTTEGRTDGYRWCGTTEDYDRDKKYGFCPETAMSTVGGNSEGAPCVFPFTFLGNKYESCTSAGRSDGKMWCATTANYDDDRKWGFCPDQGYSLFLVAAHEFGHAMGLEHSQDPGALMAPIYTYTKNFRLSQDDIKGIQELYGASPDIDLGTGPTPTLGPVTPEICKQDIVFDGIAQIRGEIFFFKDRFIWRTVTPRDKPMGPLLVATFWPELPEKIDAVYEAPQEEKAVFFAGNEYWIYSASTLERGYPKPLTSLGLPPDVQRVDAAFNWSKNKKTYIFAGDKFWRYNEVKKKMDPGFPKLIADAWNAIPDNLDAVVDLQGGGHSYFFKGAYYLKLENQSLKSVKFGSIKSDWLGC

T1 sequence (P06756 31-1048, chain 1 of 2): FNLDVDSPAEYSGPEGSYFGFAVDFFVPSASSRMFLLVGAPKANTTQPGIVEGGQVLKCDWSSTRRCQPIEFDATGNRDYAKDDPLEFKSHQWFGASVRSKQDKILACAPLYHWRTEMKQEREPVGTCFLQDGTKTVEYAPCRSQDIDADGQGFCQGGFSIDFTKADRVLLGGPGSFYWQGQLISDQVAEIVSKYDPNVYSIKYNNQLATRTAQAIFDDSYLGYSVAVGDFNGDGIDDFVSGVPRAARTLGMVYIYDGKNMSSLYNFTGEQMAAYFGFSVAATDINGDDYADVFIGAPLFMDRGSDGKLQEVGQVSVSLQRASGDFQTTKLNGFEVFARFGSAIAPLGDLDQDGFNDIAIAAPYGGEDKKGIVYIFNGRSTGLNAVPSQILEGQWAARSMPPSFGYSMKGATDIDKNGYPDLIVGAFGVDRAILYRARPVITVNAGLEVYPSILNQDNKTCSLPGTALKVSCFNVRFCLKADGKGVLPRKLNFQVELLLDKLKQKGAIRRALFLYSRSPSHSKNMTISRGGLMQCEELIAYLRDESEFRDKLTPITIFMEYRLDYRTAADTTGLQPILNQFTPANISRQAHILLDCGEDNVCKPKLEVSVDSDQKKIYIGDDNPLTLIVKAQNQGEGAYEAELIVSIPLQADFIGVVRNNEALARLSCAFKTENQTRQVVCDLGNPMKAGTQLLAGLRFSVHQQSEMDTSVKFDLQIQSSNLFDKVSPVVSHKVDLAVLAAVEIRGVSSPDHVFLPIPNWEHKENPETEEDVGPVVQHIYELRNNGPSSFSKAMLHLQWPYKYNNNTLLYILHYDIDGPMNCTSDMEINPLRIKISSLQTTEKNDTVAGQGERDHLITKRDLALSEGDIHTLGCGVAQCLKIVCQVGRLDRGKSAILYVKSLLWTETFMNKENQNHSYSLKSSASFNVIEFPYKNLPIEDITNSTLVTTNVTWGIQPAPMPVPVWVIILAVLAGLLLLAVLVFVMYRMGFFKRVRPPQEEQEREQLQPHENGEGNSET
T1 sequence (P05106 27-788, chain 2 of 2): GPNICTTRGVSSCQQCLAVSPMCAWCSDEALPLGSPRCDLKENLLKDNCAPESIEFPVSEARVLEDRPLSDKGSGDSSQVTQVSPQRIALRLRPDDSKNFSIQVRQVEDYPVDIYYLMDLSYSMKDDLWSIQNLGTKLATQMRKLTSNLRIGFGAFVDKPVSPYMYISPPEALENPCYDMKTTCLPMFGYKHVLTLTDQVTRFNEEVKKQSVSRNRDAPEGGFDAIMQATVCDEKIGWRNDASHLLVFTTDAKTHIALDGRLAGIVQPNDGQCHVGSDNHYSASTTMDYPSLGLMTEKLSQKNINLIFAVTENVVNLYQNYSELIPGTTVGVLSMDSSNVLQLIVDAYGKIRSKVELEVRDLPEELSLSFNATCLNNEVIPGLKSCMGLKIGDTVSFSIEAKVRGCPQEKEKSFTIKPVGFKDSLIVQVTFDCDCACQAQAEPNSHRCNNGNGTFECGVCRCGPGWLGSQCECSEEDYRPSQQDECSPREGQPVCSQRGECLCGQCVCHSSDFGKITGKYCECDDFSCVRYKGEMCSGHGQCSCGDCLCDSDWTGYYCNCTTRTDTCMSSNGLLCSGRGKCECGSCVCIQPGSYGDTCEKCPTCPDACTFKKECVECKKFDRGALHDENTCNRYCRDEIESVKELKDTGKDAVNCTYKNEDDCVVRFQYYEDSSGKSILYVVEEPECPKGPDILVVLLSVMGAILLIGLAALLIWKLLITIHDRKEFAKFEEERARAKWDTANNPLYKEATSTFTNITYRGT

In the case of “Cy5.5-c(KAHWGFTLD)NH2 ({Cy5.5}-KAHWGFTLD-NH2; lactam 1-9)”, the “Fluorescent signal in contra lateral tibia region preinjected with saline” value ([1]; control leg, i.v. injection of imaging agent) is reported as “no fluorescent signal was detected”, the “Visualization of small tumor in NIR image” value ([1]; intratibia PC-3, no lesion by X-ray, 3 days after inoculation, 24 and 48 hours after injection) is reported as “clearly visualized” and the “Presence of tumors shown in NIR images (specificity versus scrambled peptide)” value ([1]; intratibia PC-3 inoculated 3 days earlier, images 24 hours after injection) is reported as “clearly showed the presence of tumors”. The “Visualization of tumor in NIR image” value (HT1080 tumor) was “clearly visualized with minimal background signal”, the “Fluorescent signal in tumor” value (SKBr-3 tumors) was “strong fluorescent signal” and the “Visualization of tumor in NIR image” value (KS1767 tumors) was “clearly visualized”. For the same molecule, the “Binding and retention in the tumor (NIR image)” value (human glioma U87 tumor; intracranial U87, tumor 3-4 mm, 12 days after inoculation, 38 hours after injection, intact animal and excised brain) was “clearly depicted”, the “Visualization of small tumor in NIR image” value (human glioma U87 tumor; subcutaneous U87, lesion less than 2 mm, 3 days after inoculation, 24 and 48 hours after injection) was “clearly visualized” and the “Visualization of tumor in NIR image” value (MDA-MB-468 tumors) was “clearly visualized”. For the same molecule, the “Binding to tumor cells” value (human tumor cells; SKBr-3, HT1080, MDA-MB-435, MDA-MB-468, U87 (PC-3 and U87 for the Tyr analogue), 37° C.) was “bound” and the “Co-localization with MMPs (MMP-2, MMP-8, MMP-9 staining)” value (human tumor cells; all cell lines tested) was “co-localized with MMPs”.

Ac-ACNGRCG (bridge 2-6; also: kind of ring closure not given here, also called control cyclic pentapeptide) [Ac-A-c(CNGRC)-G]: no binding [2].

B1: c(KAHWGFTLD)NH2 (SEQ ID NO. 10) (side chain-to-side chain linkage) (peptide)
peptide: KAHWGFTLD
HELM: PEPTIDE1{K.A.H.W.G.F.T.L.D.[am]}$PEPTIDE1,PEPTIDE1,1:R3-9:R3$$$V2.0; N-terminus assumed
SMILES: CC(C)C[C@@H]1NC(=O)[C@H]([C@@H](C)O)NC(=O)[C@H](Cc2ccccc2)NC(=O)CNC(=O)[C@H](Cc2c[nH]c3ccccc23)NC(=O)[C@H](Cc2c[nH]cn2)NC(=O)[C@H](C)NC(=O)[C@@H](N)CCCCNC(=O)C[C@@H](C(N)=O)NC1=O
B1 was tested, and the “IC50 of MMP-2 enzyme inhibition (biotinylated gelatinase substrate cleavage assay)” value [3] was 5.5 µM.
